Assay [1] concerns the target T1, Chitooligosaccharidolytic beta-N-acetylglucosaminidase (Ostrinia furnacalis) (UniProt Q06GJ0).
T1 sequence (whole entry): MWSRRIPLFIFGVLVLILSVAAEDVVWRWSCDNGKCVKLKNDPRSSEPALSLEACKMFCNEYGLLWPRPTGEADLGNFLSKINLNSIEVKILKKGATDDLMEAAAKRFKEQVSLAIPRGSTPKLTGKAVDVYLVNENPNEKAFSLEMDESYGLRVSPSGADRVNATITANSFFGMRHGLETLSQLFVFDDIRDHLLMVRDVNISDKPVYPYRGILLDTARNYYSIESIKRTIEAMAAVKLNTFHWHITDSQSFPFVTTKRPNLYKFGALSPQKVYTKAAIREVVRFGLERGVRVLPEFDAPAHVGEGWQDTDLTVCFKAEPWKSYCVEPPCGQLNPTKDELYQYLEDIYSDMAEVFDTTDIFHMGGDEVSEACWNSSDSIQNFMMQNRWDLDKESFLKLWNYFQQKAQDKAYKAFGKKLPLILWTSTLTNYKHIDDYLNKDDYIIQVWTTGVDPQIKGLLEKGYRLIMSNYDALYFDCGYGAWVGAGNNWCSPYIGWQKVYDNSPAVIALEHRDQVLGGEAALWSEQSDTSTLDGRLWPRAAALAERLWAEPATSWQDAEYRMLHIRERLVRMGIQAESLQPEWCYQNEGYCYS
The experiment in a line: Inhibition of Ostrinia furnacalis Hex1 expressed in Pichia pastoris at 200 uM using varying levels of 4-MU-GlcNAc as substrate measured after 30 mins by fluorescence assay relative to control.

For assay [2], the target named is T2, Protein O-GlcNAcase (Homo sapiens) (UniProt O60502).
T2 sequence (whole entry): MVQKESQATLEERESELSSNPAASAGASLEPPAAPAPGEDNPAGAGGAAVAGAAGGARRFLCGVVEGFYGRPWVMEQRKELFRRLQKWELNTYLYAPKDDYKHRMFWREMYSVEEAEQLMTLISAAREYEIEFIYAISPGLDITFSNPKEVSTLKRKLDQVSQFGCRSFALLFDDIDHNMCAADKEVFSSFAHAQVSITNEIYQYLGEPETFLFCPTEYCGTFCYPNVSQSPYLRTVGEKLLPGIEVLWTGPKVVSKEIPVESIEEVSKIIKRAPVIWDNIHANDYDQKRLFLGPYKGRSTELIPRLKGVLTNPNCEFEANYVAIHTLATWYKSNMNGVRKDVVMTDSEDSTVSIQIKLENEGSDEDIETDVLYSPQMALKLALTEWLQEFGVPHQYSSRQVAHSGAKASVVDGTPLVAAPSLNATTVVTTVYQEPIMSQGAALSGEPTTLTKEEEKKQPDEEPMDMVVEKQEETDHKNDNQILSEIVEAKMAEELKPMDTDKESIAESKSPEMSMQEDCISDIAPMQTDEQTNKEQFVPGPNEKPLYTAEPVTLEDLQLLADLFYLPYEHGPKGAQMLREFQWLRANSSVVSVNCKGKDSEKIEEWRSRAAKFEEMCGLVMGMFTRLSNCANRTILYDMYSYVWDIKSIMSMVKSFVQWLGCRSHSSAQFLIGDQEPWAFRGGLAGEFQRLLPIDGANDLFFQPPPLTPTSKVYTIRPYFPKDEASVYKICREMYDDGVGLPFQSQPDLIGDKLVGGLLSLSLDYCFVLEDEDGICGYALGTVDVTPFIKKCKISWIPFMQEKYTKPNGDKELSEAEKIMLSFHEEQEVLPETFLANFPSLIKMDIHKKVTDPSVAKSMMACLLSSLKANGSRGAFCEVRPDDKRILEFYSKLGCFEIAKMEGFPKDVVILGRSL
As to the kind of experiment: Inhibition of recombinant human OGA expressed in Escherichia coli BL21(DE3) at 100 uM using 4-MU-GlcNAc as substrate measured after 30 mins by fluorescence assay relative to control.

Assay [3] has as its target T1, Chitooligosaccharidolytic beta-N-acetylglucosaminidase (Ostrinia furnacalis). The experiment in a line: Inhibition of Ostrinia furnacalis Hex1 expressed in Pichia pastoris at 100 uM using 4-MU-GlcNAc as substrate measured after 30 mins by fluorescence assay relative to control.
The target of assay [4] is T3, Chitooligosaccharidolytic beta-N-acetylglucosaminidase (Ostrinia furnacalis, UniProt Q06GJ0).
T3 sequence (Q06GJ0 whole entry): T1 sequence (whole entry)
As to the kind of experiment: Inhibition of Ostrinia furnacalis Hex1 expressed in Pichia pastoris using varying levels of 4-MU-GlcNAc as substrate measured after 30 mins by fluorescence assay.

Another assay concerns the target T4, Protein O-GlcNAcase (Homo sapiens, UniProt O60502).
T4 sequence (O60502 whole entry): T2 sequence (whole entry)
The experiment in a line: Inhibition of recombinant human OGA expressed in Escherichia coli BL21(DE3) using varying levels of 4-MU-GlcNAc as substrate measured after 30 mins by fluorescence assay.

The target of assay [5] is T2, Protein O-GlcNAcase (Homo sapiens). The experiment in a line: Inhibition of recombinant human OGA expressed in Escherichia coli BL21(DE3) at 200 uM using 4-MU-GlcNAc as substrate measured after 30 mins by fluorescence assay relative to control.

Each structure is given as a SMILES string.

Broadly, the inhibition is the percentage by which the read-out fell short of the control. In general, Ki refers to a measure of affinity in units of concentration, obtained from inhibition or displacement. Consider `CC(=O)N[C@@H]1[C@@H](O)[C@H](O)[C@@H](CO)O[C@H]1SCC(=O)NCCCN1C(=O)c2cccc3cccc(c23)C1=O`, for which the inhibition was less than 50% in assay [1], 97.6% in assay [2] and 29.2% in assay [3]. The Ki in assay [4] was greater than 200 µM.

On to `CC(=O)N[C@@H]1[C@@H](O)[C@H](O)[C@@H](CO)O[C@H]1SCCC(=O)NCCCCN1C(=O)c2cccc3cccc(c23)C1=O`, for which the inhibition was 34.3% in assay [2] and 26.9% in assay [3].

On to `CC(=O)N[C@@H]1[C@@H](O)[C@H](O)[C@@H](CO)O[C@H]1SCCCCCCn1cc(CN2C(=O)c3cccc4cccc(c34)C2=O)nn1`, for which the results for the inhibition in assay [2], in assay [3] and in assay [5] were 25.7%, 93.2% and less than 50%, respectively. Further, the results for the Ki (on Protein O-GlcNAcase; in assay [4]) were greater than 200 µM and 21.8 µM, respectively.

With `CC(=O)N[C@H]1/C(=N/OC(=O)Nc2ccccc2)O[C@H](CO)[C@@H](O)[C@@H]1O`, the results for the inhibition in assay [2] and in assay [3] were 98.9% and 97.5%, respectively.

As for `CC(=O)N[C@@H]1[C@@H](O)[C@H](O)[C@@H](CO)O[C@H]1SCC(=O)NCCCCN1C(=O)c2cccc3cccc(c23)C1=O`, the inhibition in assay [2] is 50%; in assay [3], 29.1%.

For `CC(=O)N[C@@H]1[C@@H](O)[C@H](O)[C@@H](CO)O[C@H]1SCCn1cc(CN2C(=O)c3cccc4cccc(c34)C2=O)nn1`, the values for the inhibition in assay [2] and in assay [3] were 27.8% and 84%, respectively.

For `CC(=O)N[C@@H]1[C@@H](O)[C@H](O)[C@@H](CO)O[C@H]1SCCCCn1cc(CN2C(=O)c3cccc4cccc(c34)C2=O)nn1`, the inhibition in assay [2] came to 25.1%; in assay [3] it was 89.9%.

For the compound `CC(=O)N[C@@H]1[C@@H](O)[C@H](O)[C@@H](CO)O[C@H]1SCC(=O)NCCN1C(=O)c2cccc3cccc(c23)C1=O`, the inhibition in assay [2] was determined as 38.6%; in assay [3], 18.4%.

`CC(=O)N[C@@H]1[C@@H](O)[C@H](O)[C@@H](CO)O[C@H]1SCC(=O)NN1C(=O)c2cccc3cccc(c23)C1=O`: the figures for the inhibition in assay [2] and in assay [3] were 31.1% and 24.9%, respectively.

As for `CC(=O)N[C@@H]1[C@@H](O)[C@H](O)[C@@H](CO)O[C@H]1SCCC(=O)NCCCN1C(=O)c2cccc3cccc(c23)C1=O`, the inhibition in assay [2] worked out at 59.4%; in assay [3] it was 25.3%.

For the compound `CC(=O)N[C@@H]1[C@@H](O)[C@H](O)[C@@H](CO)O[C@H]1SCCC(=O)NCCN1C(=O)c2cccc3cccc(c23)C1=O`, the inhibition stood at 66.9% in assay [2] and 25.8% in assay [3].

With `CC(=O)N[C@@H]1[C@@H](O)[C@H](O)[C@@H](CO)O[C@H]1SCCCn1cc(CN2C(=O)c3cccc4cccc(c34)C2=O)nn1`, the inhibition in assay [2] turned out to be 22.7%; in assay [3], 81.6%.

On to `CC(=O)N[C@@H]1[C@@H](O)[C@H](O)[C@@H](CO)O[C@H]1SCCCCCn1cc(CN2C(=O)c3cccc4cccc(c34)C2=O)nn1`, for which the inhibition in assay [2] came to 26%; in assay [3], 91.9%.

Regarding `NN1C(=O)c2cccc3cccc(c23)C1=O`, the inhibition in assay [2] is 22.2%; in assay [3] it was 28.1%.

For the compound `CC(=O)N[C@@H]1[C@@H](O)[C@H](O)[C@@H](CO)O[C@H]1S`, the inhibition in assay [2] was found to be 12%; in assay [3] it was 0%.

On to `CC(=O)N[C@@H]1[C@@H](O)[C@H](O)[C@@H](CO)O[C@H]1SCn1cc(CN2C(=O)c3cccc4cccc(c34)C2=O)nn1`, for which the values for the inhibition in assay [2] and in assay [3] were 18.5% and 17.9%, respectively.

These data come from ChEMBL document CHEMBL4177740, “Selective inhibition of β-N-acetylhexosaminidases by thioglycosyl-naphthalimide hybrid molecules” (Bioorg Med Chem, 2018).
